Reference: ChEMBL document CHEMBL1817560, “Selectivity of kinase inhibitor fragments” (J Med Chem, 2011)

Experiments:
[1] = molecular target: RAC-alpha serine/threonine-protein kinase (Homo sapiens, UniProt P31749); test: Inhibition of AKT1 expressed in Escherichia coli or baculovirus-infected insect cells by scintillation proximity assay
[2] = molecular target: T1, Inhibitor of nuclear factor kappa-B kinase subunit beta (Homo sapiens, UniProt O14920); test: biochemical; format: cell-based
T1 sequence (O14920 whole entry): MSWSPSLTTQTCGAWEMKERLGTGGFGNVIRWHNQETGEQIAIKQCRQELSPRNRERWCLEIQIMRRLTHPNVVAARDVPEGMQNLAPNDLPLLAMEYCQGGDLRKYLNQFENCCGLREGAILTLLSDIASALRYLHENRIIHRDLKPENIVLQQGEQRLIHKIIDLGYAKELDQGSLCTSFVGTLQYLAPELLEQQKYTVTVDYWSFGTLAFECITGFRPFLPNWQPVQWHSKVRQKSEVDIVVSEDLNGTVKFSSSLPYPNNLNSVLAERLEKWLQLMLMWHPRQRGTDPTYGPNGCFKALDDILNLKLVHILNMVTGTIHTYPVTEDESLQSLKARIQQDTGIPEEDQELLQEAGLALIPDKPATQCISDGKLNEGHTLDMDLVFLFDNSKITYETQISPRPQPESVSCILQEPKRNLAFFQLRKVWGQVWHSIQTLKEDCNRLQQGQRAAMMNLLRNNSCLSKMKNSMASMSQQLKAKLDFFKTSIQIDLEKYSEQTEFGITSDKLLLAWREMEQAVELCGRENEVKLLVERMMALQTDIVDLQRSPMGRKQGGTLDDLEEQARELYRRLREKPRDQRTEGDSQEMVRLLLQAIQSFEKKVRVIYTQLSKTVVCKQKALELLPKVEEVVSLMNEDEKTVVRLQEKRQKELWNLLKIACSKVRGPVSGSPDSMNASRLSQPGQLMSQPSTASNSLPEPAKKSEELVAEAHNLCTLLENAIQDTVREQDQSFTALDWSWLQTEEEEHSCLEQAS

[3] = molecular target: Mitogen-activated protein kinase 8 (Homo sapiens, UniProt P45983); test: Inhibition of JNK1 expressed in Escherichia coli or baculovirus-infected insect cells by TR-FRET assay
Chain of Mitogen-activated protein kinase 8 (P45983 whole entry): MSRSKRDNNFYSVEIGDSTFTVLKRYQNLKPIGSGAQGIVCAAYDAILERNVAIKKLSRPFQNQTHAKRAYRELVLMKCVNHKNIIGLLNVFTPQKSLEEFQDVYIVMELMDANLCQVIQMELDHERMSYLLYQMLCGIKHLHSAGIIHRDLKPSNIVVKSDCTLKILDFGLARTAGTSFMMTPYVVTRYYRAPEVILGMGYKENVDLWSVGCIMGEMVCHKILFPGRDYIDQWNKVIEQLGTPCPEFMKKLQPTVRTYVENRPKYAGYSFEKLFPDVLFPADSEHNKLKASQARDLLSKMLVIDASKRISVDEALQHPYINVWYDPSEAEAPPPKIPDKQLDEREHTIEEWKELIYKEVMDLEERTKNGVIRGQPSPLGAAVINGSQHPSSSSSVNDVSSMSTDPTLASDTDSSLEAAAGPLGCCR

[4] = molecular target: Tyrosine-protein kinase SYK (Homo sapiens, UniProt P43405); test: Inhibition of SYK expressed in Escherichia coli or baculovirus-infected insect cells by TR-FRET assay
[5] = molecular target: Mitogen-activated protein kinase 14 (Homo sapiens, UniProt Q16539); test: Inhibition of p38alpha expressed in Escherichia coli or baculovirus-infected insect cells by TR-FRET assay
Chain of Mitogen-activated protein kinase 14 (Q16539 whole entry): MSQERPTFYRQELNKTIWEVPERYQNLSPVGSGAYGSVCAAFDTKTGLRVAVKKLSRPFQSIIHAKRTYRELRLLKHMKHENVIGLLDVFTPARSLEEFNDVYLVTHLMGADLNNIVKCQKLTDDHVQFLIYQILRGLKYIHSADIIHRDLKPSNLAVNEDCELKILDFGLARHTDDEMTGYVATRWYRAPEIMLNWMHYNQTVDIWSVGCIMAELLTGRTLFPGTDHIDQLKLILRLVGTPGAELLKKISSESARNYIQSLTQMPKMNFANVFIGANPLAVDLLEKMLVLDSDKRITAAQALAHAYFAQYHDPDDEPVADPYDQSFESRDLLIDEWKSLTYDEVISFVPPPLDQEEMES

Chain of RAC-alpha serine/threonine-protein kinase (P31749 whole entry): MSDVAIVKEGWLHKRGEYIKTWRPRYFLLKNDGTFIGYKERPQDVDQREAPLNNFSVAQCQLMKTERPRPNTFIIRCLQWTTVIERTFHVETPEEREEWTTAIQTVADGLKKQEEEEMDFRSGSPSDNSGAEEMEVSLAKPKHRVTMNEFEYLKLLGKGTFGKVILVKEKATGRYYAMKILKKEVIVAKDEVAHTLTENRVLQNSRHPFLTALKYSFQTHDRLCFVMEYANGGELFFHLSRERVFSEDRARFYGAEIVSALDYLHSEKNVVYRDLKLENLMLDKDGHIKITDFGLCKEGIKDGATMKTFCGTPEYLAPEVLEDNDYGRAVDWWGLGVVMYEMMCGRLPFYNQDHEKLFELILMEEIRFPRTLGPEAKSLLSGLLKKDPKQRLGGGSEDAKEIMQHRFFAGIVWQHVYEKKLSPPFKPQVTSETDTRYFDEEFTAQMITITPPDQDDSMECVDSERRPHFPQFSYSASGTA

**Q.** Which results are given for `c1ccc2[nH]ncc2c1` [INDAZOLE]?
**A.** IC50 ([1]; read-out: IC50): > 400 µM; IC50 ([1]; read-out: pIC50 (converted)): > 398 µM

**Q.** `c1cnc2[nH]ccc2c1` was tested. Which IC50 ([2]; read-out: IC50) did it give?
**A.** The IC50 was > 667 µM.

**Q.** And the IC50 ([2]; read-out: pIC50 (converted))?
**A.** The IC50 was > 631 µM.

**Q.** What about the IC50 ([3]; read-out: IC50) of the same compound?
**A.** Its IC50 is > 667 µM.

**Q.** And the IC50 ([3]; read-out: pIC50 (converted))?
**A.** Its IC50 is > 631 µM.

**Q.** What about the IC50 ([1]; read-out: IC50) of the same compound?
**A.** The IC50 was > 400 µM.

**Q.** And the IC50 ([1]; read-out: pIC50 (converted))?
**A.** The IC50 was > 398 µM.

**Q.** With `O=C(Nc1ccccc1)Nc1ccccc1` as the compound, how does the IC50 [4] read?
**A.** The IC50 was > 660 µM.

**Q.** How did the IC50 ([2]; read-out: IC50) turn out when `c1ccc(Nc2ncccn2)cc1` was run?
**A.** Its IC50 is > 667 µM.

**Q.** What about the IC50 ([2]; read-out: pIC50 (converted)) of the same compound?
**A.** Its IC50 is > 631 µM.

**Q.** What about the IC50 ([5]; read-out: IC50) of the same compound?
**A.** Its IC50 is > 667 µM.

**Q.** What about the IC50 ([5]; read-out: pIC50 (converted)) of the same compound?
**A.** The IC50 was > 631 µM.
